Laboratory results as given in US7235267B1, “Brain cell or nerve cell-protecting agents comprising medicinal ginseng” (priority 1999, dated 2007).
“Also recorded” adds a separate entry of the source.

Key:
[1] = tested on: co-cultures of nerve cells (neurons) and oligodendrocytes; assay: Co-culture of nerve cells and oligodendrocytes, Western blotting of MAP2 and CNPase; type: cell-based, rat
From the text: As generally known, in myelinated nerve fibers within brain and nervous tissues, oligodendrocytes form myelin by ensheathing axons of neurons repeatedly. Further, in unmyelinated nerve fibers, processes of oligodendrocytes surround axons of neurons only once. In the brain and nervous tissues, nerve cells (neurons) and oligodendrocytes are at any time holding close positional relationship. The present inventors performed co-cultures of nerve cells and oligodendrocytes to investigate whether or not ginsenoside Rb1 promotes survival of both cells. For that purpose, nerve cells (neurons) were isolated from cerebral cortices of fetal rats at gestational day 17. The mixed brain cell culture was initiated to isolate oligodendrocytes by using the forebrain of newborn rats. Fifty thousands of oligodendrocytes and 500,000 nerve cells were cocultured. To this culture system was added 1 fg/ml to 10 pg/ml ginsenoside Rb1 in DMEM containing 1% fetal calf serum, and the mixed cells were cultured for 5 days. Subsequently, samples for electrophoresis were prepared and contents of the neuron-specific protein MAP2 (microtubule-associated protein 2) and the oligodendrocyte-specific protein CNPase (cyclic nucleotide […]) in the culture well were assayed by means of Western blotting. […]

Bcl-xL mRNA = assay: RT-PCR of Bcl-xL mRNA in cerebral cortex after intravenous ginsenoside Rb1; type: in vivo, rat; conditions: intravenous 60 μg/day; 4th and 6th hour after MCA permanent occlusion; vs sham and saline
Experimental: The present inventors investigated whether or not intravenous administration of low doses of ginsenoside Rb1 increases expression of Bcl-xL mRNA in brain tissues. For this purpose, for example, SH-SP rats (body weight 250-300 g), at the age of 12 weeks, were used. Immediately after permanent occlusion of the MCA in SH-SP rats under inhalation anesthesia, ginsenoside Rb1 dissolved in physiological saline was infused once intravenously (60 μg), and subsequently ginsenoside Rb1 was intravenously infused continuously at the dose of 60 μg/day. Control animals with MCA permanent occlusion and sham-operated animals received the same amount of physiological saline after MCA permanent occlusion.
Group 2 consists of animals with the same experimental conditions. Sham indicates sham-operated animals; Rb1(−) indicates animals with cerebral infarction administered with physiological saline; and Rb1(+) indicates animals with cerebral infarction administered intravenously with ginsenoside Rb1. At the 4th hour or the 6th hour after the sham operation and MCA permanent occlusion, animals were anesthetized with chloral hydrate, and the left cerebral cortex (i.e. the cerebral cortex on the side of MCA permanent occlusion) was dissected out and total RNA was prepared for RT-PCR. The mRNA of β-actin was used as the internal standard. […]

ischemic brain = assay: Oral administration of ginsenoside Rb1 per se, neuroprotective action; type: in vivo
[2] = tested on: primary cultured myocardial cells; assay: Myocardial cell survival in glucose-free, serum-free medium (α-actinin immunoblotting); type: cell-based, rat
Experimental: We have investigated whether or not ginsenoside Rb1 could actually suppress myocardial cell death in the concentration range for increasing the expression of Bcl-xL protein. For that purpose, for example, the protective effect of ginsenoside Rb1 on myocardial cells was examined when the primary cultured myocardial cells were cultured without addition of glucose. Ginsenoside Rb1 in the concentration range from 0 to 1 ng/ml was added to myocardial cells in serum-free DMEM without containing glucose, and the myocardial cells were cultured for 4 or 5 days. Subsequently, the samples for electrophoresis were prepared, and immunoblotting (Western blotting) was performed by using anti-striated muscle specific α-actinin antibody.
We (the present inventors) investigated whether ginsenoside Rb1 could actually suppress myocardial cell death in the concentration range for increasing the expression of Bcl-xL protein or not. For that purpose, for example, the protective effect of ginsenoside Rb1 on myocardial cells was examined when the primary cultured myocardial cells were cultured without addition of glucose. Ginsenoside Rb1 in the concentration range from 0 to 1 ng/ml was added to serum-free DMEM without containing glucose, and myocardial cells were cultured for 4 or 5 days. Subsequently, the sample for electrophoresis was prepared, and immunoblotting (Western blotting) was performed by using anti-striated muscle specific α-actinin antibody. […] Statistical analyses were conducted by ANOVA+Scheffe's post hoc test.

[3] = Observation of animals for ill or adverse effects; type: in vivo; conditions: present experiments

CC(C)=CCC[C@](C)(O[C@@H]1O[C@H](CO[C@@H]2O[C@H](CO)[C@@H](O)[C@H](O)[C@H]2O)[C@@H](O)[C@H](O)[C@H]1O)[C@H]1CC[C@]2(C)[C@@H]1[C@H](O)C[C@@H]1[C@@]3(C)CC[C@H](O[C@@H]4O[C@H](CO)[C@@H](O)[C@H](O)[C@H]4O[C@@H]4O[C@H](CO)[C@@H](O)[C@H](O)[C@H]4O)C(C)(C)[C@@H]3CC[C@]12C [ginsenoside Rb1]
band of MAP2 and band of CNPase (survival of nerve cells and oligodendrocytes) ([1]; 1 fg/ml to 100 fg/ml, 5 days, vs non-added and 10^4 fg/ml groups): obviously intense
concentrations that made intense the MAP2 and CNPase bands ([1]; FIG. 22): 1 to 100 fg/mL
expressions of Bcl-xL mRNA in the cerebral cortex (Bcl-xL mRNA): obviously increased
neuroprotective action / protective action on the ischemic brain (ischemic brain): did not show protective effects; also recorded: did not exhibit neuroprotective action; also recorded: did not exhibit any protective action
protective effect on myocardial cells ([2]; 0.01 fg/ml, n=3): significant effects are not noted
striated muscle-specific α-actinin by immunoblotting (myocardial cell survival) ([2]; 1 fg/ml to 10^4 fg/ml, glucose-free serum-free medium, 4-5 days): significantly detected
concentrations promoting survival of myocardial cells ([2]; FIG. 26): 1-10^4 fg/ml
ill / adverse effects on careful observation of animals [3]: No adverse effect was detected
